Laboratory results published in PubChem BioAssay AID1745844 (Carcinogenic Potency Database (CPDB), 2022).
Calls of active or inactive are those of the source. The rule behind the calls is not given here.

System: rodent lifetime carcinogenesis bioassay, tumor incidence TD50
Experiment: carcinogenic potency in animals, long-term in vivo studies, CPDB compilation (AID 1745844)

c1ccc2cc(Nc3ccc(Nc4ccc5ccccc5c4)cc3)ccc2c1
TD50 (mouse, strain B6AKF1, females, oral dosing, site: any site (literature study), lesion: several types, types named in the paper, dosed 76 weeks, study length 76 weeks): 63.8 mg/kg/day (inactive)
carcinogen call (mouse, strain B6AKF1, females, oral dosing, site: liver, lesion: hepatoma, dosed 76 weeks, study length 76 weeks): negative (inactive)
TD50 (mouse, strain B6AKF1, females, oral dosing, site: lung, lesion: adenoma, dosed 76 weeks, study length 76 weeks): 221 mg/kg/day (inactive)
carcinogen call (mouse, strain B6AKF1, males, oral dosing, site: any site (literature study), lesion: several types, types named in the paper, dosed 76 weeks, study length 76 weeks): negative (inactive)
carcinogen call (mouse, strain B6AKF1, males, oral dosing, site: liver, lesion: hepatoma, dosed 76 weeks, study length 76 weeks): negative (inactive)
carcinogen call (mouse, strain B6AKF1, males, oral dosing, site: lung, lesion: adenoma, dosed 76 weeks, study length 76 weeks): negative (inactive)
TD50 (mouse, strain B6C3F1, females, oral dosing, site: any site (literature study), lesion: several types, types named in the paper, dosed 76 weeks, study length 76 weeks): 235 mg/kg/day (inactive)
carcinogen call (mouse, strain B6C3F1, females, oral dosing, site: liver, lesion: hepatoma, dosed 76 weeks, study length 76 weeks): negative (inactive)
carcinogen call (mouse, strain B6C3F1, females, oral dosing, site: lung, lesion: several types, types named in the paper, dosed 76 weeks, study length 76 weeks): negative (inactive)
TD50 (mouse, strain B6C3F1, males, oral dosing, site: any site (literature study), lesion: several types, types named in the paper, dosed 76 weeks, study length 76 weeks): 25.9 mg/kg/day (inactive)
TD50 (mouse, strain B6C3F1, males, oral dosing, site: liver, lesion: hepatoma, dosed 76 weeks, study length 76 weeks): 59.4 mg/kg/day (inactive)
TD50 (mouse, strain B6C3F1, males, oral dosing, site: lung, lesion: adenoma, dosed 76 weeks, study length 76 weeks): 192 mg/kg/day (inactive)

C#C[C@]1(OC(C)=O)CC[C@H]2[C@@H]3CCC4=C[C@@H](OC(C)=O)CC[C@@H]4[C@H]3CC[C@@]21C
carcinogen call (rat, strain Wistary/NIN, females, by gavage, site: liver, lesion: one or several types, types not named, dosed 60 weeks, study length 60 weeks): negative (inactive)

[O]=[Nb](=[O])[OH]
carcinogen call (mouse, strain Charles River CD1, both sexes, in drinking water, site: any site (literature study), lesion: malignant tumor, dosed 135 weeks, study length 135 weeks): negative (inactive)
carcinogen call (mouse, strain Charles River CD1, both sexes, in drinking water, site: any site (literature study), lesion: one or several types, types not named, dosed 135 weeks, study length 135 weeks): negative (inactive)
carcinogen call (mouse, strain Charles River CD1, both sexes, in drinking water, site: liver, lesion: one or several types, types not named, dosed 135 weeks, study length 135 weeks): negative (inactive)
carcinogen call (mouse, strain Charles River CD1, both sexes, in drinking water, site: lung, lesion: one or several types, types not named, dosed 135 weeks, study length 135 weeks): negative (inactive)

CC(Cl)C=O (centres undefined)
TD50 (mouse, strain Ha/ICR, females, by gavage, site: forestomach, lesion: one or several types, types not named, dosed 89 weeks, study length 89 weeks): 12.9 mg/kg/day
TD50 (mouse, strain Ha/ICR, males, by gavage, site: forestomach, lesion: one or several types, types not named, dosed 89 weeks, study length 89 weeks): 22.7 mg/kg/day
